{"source": "patent US8173438B1", "about": "“Microbiological assessment method and device utilizing oxygen gradient sensing” (Photonic BioSystems, Inc., priority 1996, dated 2012)", "assay_type_in_all_cases": "cell-based", "key": {"B. subtilis organisms [1]": {"system": "B. subtilis organisms", "assay": "Integrated biological sensor disk antibiotic susceptibility test (oxygen consumption via luminescent signal), 400,000 cells per disk", "description": "In this example, organisms were applied to the integrated biological sensor disk in order to attain rapid measures of activity within the disk's microenvironment while the disk was incubated in culture media containing the antibiotic being assayed for effects on the microbial population.\nB. subtilis organisms were cultured in Trypticase Soy Broth (TSB) media to obtain an inoculum of actively growing test organisms. Twenty microliter aliquots, each containing 400,000 cells (established by subsequent plate counting), were removed, and dispensed onto 0.25 inch diameter dry oxygen-sensor disks prepared from 0.45 micron pore cellulose-ester filter membrane stock (Millipore), in a manner similar to that described in Example 7. These integrated biological sensor disks bearing organisms were placed at the bottom of sterile polypropylene vessels, to which was added 1 ml of TSB media containing penicillin at concentrations of 5 ug/ml, or 5 ng/ml, or no antibiotic in the case of the positive growth control.\n(§1) All samples were prepared and cultured in parallel, incubated at 37° C. and the oxygen consumption tracked via the integrated sensors' luminescent signals, in a manner similar to that shown in FIG. 7. […] The inhibitory effect of penicillin on organisms' growth was already manifesting itself in this time frame."}, "B. subtilis organisms [2]": {"system": "B. subtilis organisms", "assay": "Bulk-volume suspension culture antibiotic test with oxygen-sensor disk at vessel bottom", "conditions": "after 60 minutes, control 2%", "description": "Alternatively, as a comparison of outgrowth and detection of antibiotic effects under bulk-volume assay conditions, identical aliquots of B. subtilis organisms were and mixed into 1 ml samples of TSB media prepared with and without penicillin as described above and dispensed into vessels. To measure oxygen consumption of the organisms in these bulk suspension samples, oxygen-sensor disks of the same derivation as the above integrated sensors, but without organisms applied to them, were placed in the bottom of the vessels.\nas §1\nBy comparison, the bulk volume cultures of B. subtilis after 60 minutes were just beginning to show indications of growth but were too early into the assay to identify inhibitory effects. The control, without antibiotic present, was just 2% above baseline, which was the same signal level as the 5 ng/ml penicillin sample. The 5 ug/ml high dose registered 1% above baseline."}, "B. subtilis cells": {"system": "B. subtilis cells", "assay": "Companion study: integrated sensor-BI, 8,000 cells collected by filtration on glass-fiber oxygen-sensor disks", "conditions": "for signal change: at about 3.5 hours (control 5% signal increase)", "description": "A similar companion study, indicated the potential of the integrated sensor-BI to detect microbial activity and identify antibiotic sensitivity in several hours, using a small number of organisms to initiate the test. Inoculum of only 8,000 B. subtilis cells were collected by filtration, similar to Example 9, on oxygen-sensor disks made from Millipore AP-40 glass-fiber filter material (0.7 micron particle retention). In about 3.5 hours, without antibiotic present, the population expanded in the integrated biological sensor control, producing a 5% level signal increase, i.e. positive indication of outgrowth. […] After 8 hours of incubation, the low-dose penicillin exposed population eventually expanded enabling assay detection of outgrowth. No activity was identified in the sample exposed to the high dose at any point over the 20 hour assay."}}, "data": [{"substance": "penicillin", "values": [{"measurement": "sensitivity of the organisms to the antibiotic", "setting": "B. subtilis organisms [1]; conclusion from 5 ng/ml and 5 ug/ml samples", "result": "sensitive"}, {"measurement": "signal increase (luminescent oxygen sensor signal above baseline)", "setting": "B. subtilis organisms [1]; penicillin 5 ng/ml, after 60 minutes of assay, 37° C., TSB media, control without penicillin 12%", "result": 6, "unit": "%"}, {"measurement": "metabolic activity (oxygen consumption)", "setting": "B. subtilis organisms [1]; penicillin 5 ug/ml, throughout 40 hours of monitoring, 37° C.", "result": "no evidence of metabolic activity"}, {"measurement": "signal above baseline", "setting": "B. subtilis organisms [2]; penicillin 5 ng/ml", "result": 2, "unit": "%"}, {"measurement": "signal above baseline", "setting": "B. subtilis organisms [2]; penicillin 5 ug/ml", "result": 1, "unit": "%"}, {"measurement": "activity (outgrowth / oxygen consumption)", "setting": "B. subtilis cells; high dose penicillin (5 ug/ml), at any point over the 20 hour assay", "result": "No activity"}, {"measurement": "incubation time to assay detection of outgrowth", "setting": "B. subtilis cells; low-dose penicillin (5 ng/ml), control about 3.5 hours", "result": 8, "unit": "h"}, {"measurement": "signal change", "setting": "B. subtilis cells; penicillin 5 ng/ml", "result": "No signal change"}, {"measurement": "signal change", "setting": "B. subtilis cells; penicillin 5 ug/ml", "result": "No signal change"}]}]}
